# Data published in patent US7642277B2, “Non-nucleoside reverse transcriptase inhibitors” (Boehringer Ingelheim International GmbH, priority 2002, dated 2010).
# Key:
# [1] = molecular target: T1, HIV-1 RT enzyme (wild type) (Human immunodeficiency virus type 1 group M subtype B, UniProt P04585); test: Reverse transcriptase (RT) enzymatic assay (IC50), PicoGreen fluorescence, wild type; assay type: biochemical; conditions: RT enzymatic assay, wild type; read-out: IC50 WT
# T1 construct: The reverse transcriptase (RT) enzyme assay has been adapted to a 96-well microtiter plate format
# Description: (§1) Reverse Transcriptase (RT) Assays Enzymatic Assay (IC50)
# The enzymatic assay employed is described as follows: The reverse transcriptase (RT) enzyme assay has been adapted to a 96-well microtiter plate format and uses PicoGreen™ as a fluorescent intercalator. More explicitly, the HIV-1 RT enzyme was thawed and appropriately diluted into Tris/HCl 50 mM pH 7.8 containing NaCl 60 mM, MgCl2∘6H2O 2 mM, DTT 6 mM, GSH 2 mM and 0.02% w/v Chaps to give ≈10 nM enzyme. […] The plate was pre-incubated for 15 minutes at room temperature before proceeding to the next step. […] Then the enzymatic reaction was initiated by addition of 20 μL of substrate solution. […] After addition of the substrate cocktail, the plate was covered with a plastic seal and incubated for 50 minutes at 37° C. in a dry incubator. The reaction was then quenched by addition of 5 μL of EDTA 0.5 M. The plate was shaken for 30 seconds at medium speed and incubated for 5 minutes at room temperature. Then 160 μL of PicoGreen™ 1:400 dilution from commercial stock (diluted in Tris 20 mM pH 7.5 with EDTA 1 mM) was added and the plate was shaken for 30 seconds and incubated for 10 minutes at room temperature. […] Each row contained at its extremities a blank and a control well.
# (§2) Table legend: A=>100; B=100-50; C=<50; NT=not tested
# [2] = molecular target: T2, HIV-1 RT resistant mutant K103N/Y181C (Human immunodeficiency virus type 1 group M subtype B, UniProt P04585, K690N/Y768C); test: Reverse transcriptase (RT) enzymatic assay (IC50), PicoGreen fluorescence, resistant mutant; assay type: biochemical
# T2 construct: The reverse transcriptase (RT) enzyme assay has been adapted to a 96-well microtiter plate format
# Description: as §1
# The enzymatic assay employed is described as follows: The reverse transcriptase (RT) enzyme assay has been adapted to a 96-well microtiter plate format and uses PicoGreen™ as a fluorescent intercalator. More explicitly, the HIV-1 RT enzyme was thawed and appropriately diluted into Tris/HCl 50 mM pH 7.8 containing NaCl 60 mM, MgCl2∘6H2O 2 mM, DTT 6 mM, GSH 2 mM and 0.02% w/v Chaps to give ≈10 nM enzyme. To 10 μL of this enzyme solution was added 10 μL of inhibitor solution (40 μM to […] inhibitor in the same assay buffer as above containing 4% v/v DMSO). The plate was pre-incubated for 15 minutes at room temperature before proceeding to the next step. In this pre-incubation step, the highest and lowest inhibitor concentrations were 20 μM and 1.016 nM respectively and the concentration of DMSO was 2% v/v. Then the enzymatic reaction was initiated by addition of 20 μL of substrate solution. The final reaction mixture contained Tris/HCl 50 mM pH 7.8, NaCl 60 mM, MgCl2∘6H2O 2 mM, DTT 6 mM, GSH 2 mM, CHAPS 0.02% w/v, DMSO 1% v/v, poly rC 45 nM, dG15 4.5 nM, dGTP 3.6 μM, and ≈2.5 nM enzyme. In this incubation step, the highest and lowest inhibitor concentrations were 10 μM and 0.508 nM respectively. After addition of the substrate cocktail, the plate was covered with a plastic seal and incubated for 50 minutes at 37° C. in a dry incubator. The reaction was then quenched by addition of 5 μL of EDTA 0.5 M. The plate was shaken for 30 seconds at medium speed and incubated for 5 minutes at room temperature. Then 160 μL of PicoGreen™ 1:400 dilution from commercial stock (diluted in Tris 20 mM pH 7.5 with EDTA 1 mM) was added and the plate was shaken for 30 seconds and incubated for 10 minutes at room temperature. The plate was then analyzed using a POLARstar Galaxy fluorimeter (BMG Labtechnologies) with λex and λem of 485 nm and 520 nm respectively. […] Each row contained at its extremities a blank and a control well.
# as §2
# [3] = system: HIV-1 (wild type) in C8166 LTRluc cells; test: C8166 HIV-1 luciferase assay (EC50), wild type; assay type: cell-based; conditions: Human immunodeficiency virus 1, C8166 HIV-1 luciferase assay (no *)
# Excerpt: (§3) C8166 HIV-1 Luciferase Assay (EC50)
# (§4) Plasmid: pGL3 Basic LTR/TAR #12
# Plasmid is the pGL3 Basic Vector (a promoterless luciferase expression vector from Promega catalogue #E1751) with the addition of HIV-1 H×B2 LTR sequence from nucleotide −138 to +80 (Sca1-HindIII) upstream of the luciferase gene and the gene for blasticidine resistance cloned in.
# (§5) C8166 cells are a human T-lymphotrophic virus type 1 immortalized but nonexpressing line of cord blood lymphocytes and are highly permissive to HIV-1 infection. The reporter cells were made by electroporating C8166 cells with pGL3 Basic LTR/TAR and then selecting positive clones with blasticidine. The clone C8166-LTRluc #A8-F5-G7 was selected by 3 consecutive rounds of limiting dilution under blasticidine selection.
# (§6) Media: Complete media consisting of: RPMI 1640+10% FBS+10^−5 M
# (§7) β-mercaptoethanol+10 μg/ml gentamycin. Cultures are maintained in complete media with 5 μg/ml blasticidine, however, selection is removed for the assay.
# (§8) Luciferase Assay Protocol
# (§9) Serial dilutions of HIV-1 inhibitors compounds are prepared in complete media from 10 mM DMSO stock solutions. Eleven serial dilutions of 2.5× are made at 8× desired final concentration in a 1 ml deep well titer plate (96 wells). The 12th well contains complete media with no inhibitor and serves as the positive control. All samples contain the same concentration of DMSO (≦0.1% DMSO). A 25 μl aliquot of inhibitor is added, to triplicate wells, of a 96 well tissue culture treated clear view black microtiter plate (Corning Costar catalogue # 3904). The last row is reserved for uninfected C8166 LTRluc cells to serve as the background blank control and the first row is media alone.
# (§10) Count C8166 LTRluc cells and place in a minimal volume of complete RPMI 1640 in a tissue culture flask (ex. 30×10^6 cells in 10 ml media/25 cm^2 flask). Infect cells with HIV-1 at a moi of 0.005. Incubate cells for 1.5 hours at 37° C. on a rotating rack in a 5% CO2 incubator. Resuspend cells in complete RPMI to give a final concentration of 25,000-cells/175 μl. Add 175 μl of cell mix to wells of 96 well microtiter plate containing 25 μl 8× inhibitors. Add 25,000 uninfected C8166-LTRluc cells/well in 200 μl complete RPMI to last row for background control. Incubate cells at 37° C. in 5% CO2 incubator for 3 days.
# (§11) Add 50 μl Steady Glo (luciferase substrate T1/2=5 hours Promega catalogue # E2520) to each well of the 96 well plate. Determine the relative light units (RLU) of luciferase using the BMG LUMlstar Galaxy luminometer. Plates are read from the bottom for 2 seconds per well with a gain of 240.
# (§12) The level of inhibition (% inhibition) of each well containing inhibitor was calculated with the following equation: […]
# The calculated % inhibition values were then used to determine EC50, slope factor (n) and maximum inhibition (Imax) by the non-linear regression routine NLIN procedure of SAS using the following equation: […]
# The results are listed in Table 9 as IC50(nM) and EC50 (nM).
# as §2
# [4] = system: HIV-1 resistant mutant K103N/Y181C in C8166 LTRluc cells; test: C8166 HIV-1 luciferase assay (EC50), resistant mutant; assay type: cell-based; conditions: Human immunodeficiency virus 1, C8166, read-out: EC50 K103N/Y181C
# Excerpt: as §3, §4, §5, §6, §7, §8
# as §9, with “Eleven” for “Serial dilutions of HIV-1 inhibitors compounds are prepared in complete media from 10 mM DMSO stock solutions. Eleven”
# as §10, with “Infect cells with HIV-1 at a moi of 0.005.” left out
# as §11, §12
# The calculated % inhibition values were then used to determine EC50, slope factor (n) and maximum inhibition (Imax) by the non-linear regression routine NLIN procedure of SAS using the following equation:
# as §2
smiles,measurement,setting,value
"O=C(CSc1ccccc1-c1cccc2ccccc12)Nc1ccccc1Cl [Entry 406, 2-{{2-(1-Naphthalenyl)phenyl}thio}-N-(2-chorophenyl)acetamide]",IC50,[1],< 50 nM
same,IC50,[2],> 100 nM
same,EC50,[3],> 100 nM
O=C(CSc1nnnn1-c1cccc(Cl)c1)Nc1ccccc1[N+](=O)[O-] [Entry 119],IC50,[1],> 100 nM
same,IC50,[2],> 100 nM
Cc1ccc(-n2nnnc2SCC(=O)Nc2cccnc2Cl)c(Cl)c1 [Entry 803],IC50,[2],> 100 nM
same,EC50,[3],< 50 nM
same,EC50,[4],> 100 nM
CC(C)(C)c1ccc(-n2nnnc2SCC(=O)Nc2ccc(S(C)(=O)=O)cc2Cl)c(Cl)c1 [Entry 603],EC50,[3],< 50 nM
same,EC50,[4],< 50 nM
"O=C(CSc1nnnn1-c1cccc2ccccc12)Nc1ccccc1Cl [Entry 208, N-(2-Chlorophenyl)-2-{{1-(1-naphthalenyl)-1H-tetrazol-5-yl}thio}acetamide]",EC50,[3],< 50 nM
same,EC50,[4],> 100 nM
CC(C)c1ccc(-n2nnnc2SCC(=O)Nc2ccccc2[N+](=O)[O-])cc1 [Entry 142],IC50,[2],> 100 nM
same,EC50,[3],< 50 nM
same,EC50,[4],> 100 nM
Cc1ccc(-n2c(C)nnc2SCC(=O)Nc2ccccc2[N+](=O)[O-])c(Cl)c1 [Entry 427],IC50,[2],> 100 nM
same,EC50,[3],< 50 nM
same,EC50,[4],> 100 nM
CCc1ccccc1-n1nnnc1SCC(=O)Nc1ccccc1[N+](=O)[O-] [Entry 110],IC50,[1],> 100 nM
same,IC50,[2],> 100 nM
CCc1nnc(SCC(=O)Nc2ccccc2[N+](=O)[O-])n1-c1cccc2ccccc12 [Entry 425],IC50,[2],> 100 nM
same,EC50,[3],< 50 nM
same,EC50,[4],> 100 nM
COc1ccc(NC(=O)CSc2nnnn2-c2cccc3ccccc23)c(Cl)c1 [Entry 237],IC50,[1],< 50 nM
same,IC50,[2],> 100 nM
same,EC50,[3],< 50 nM
Cc1ccc(-n2nnnc2SCC(=O)Nc2ccccc2Cl)c(Cl)c1 [Entry 501],EC50,[3],< 50 nM
same,EC50,[4],> 100 nM
Cc1ccc(-n2nnnc2SCC(=O)Nc2ccccc2Cl)c(Br)c1 [Entry 701],IC50,[1],< 50 nM
same,IC50,[2],> 100 nM
O=C(CSc1nnnn1-c1ccc(Cl)cc1Cl)Nc1ccccc1[N+](=O)[O-] [Entry 126],IC50,[1],> 100 nM
same,IC50,[2],> 100 nM
CC(C)c1ccccc1-n1nnnc1SCC(=O)Nc1ccccc1[N+](=O)[O-] [Entry 112],IC50,[1],> 100 nM
same,IC50,[2],> 100 nM
O=C(COc1ccccc1-c1ccccc1)Nc1ccccc1[N+](=O)[O-] [Entry 413],IC50,[1],> 100 nM
same,IC50,[2],> 100 nM
COC(=O)c1ccc(NC(=O)CSc2nnnn2-c2ccc(C)cc2Cl)c([N+](=O)[O-])c1 [Entry 506],IC50,[1],< 50 nM
same,IC50,[2],> 100 nM
CCN(CC)c1ccc(-n2nnnc2SCC(=O)Nc2ccccc2[N+](=O)[O-])cc1 [Entry 143],IC50,[2],> 100 nM
same,EC50,[3],< 50 nM
same,EC50,[4],> 100 nM
O=C(CSc1nnnn1-c1cccc2ccccc12)Nc1ccccc1O [Entry 211],IC50,[1],> 100 nM
same,EC50,[3],< 50 nM
same,EC50,[4],> 100 nM
Cc1ccccc1NC(=O)CSc1nnnn1-c1cccc2ccccc12 [Entry 202],IC50,[1],> 100 nM
same,IC50,[2],> 100 nM
Cc1ccc(NC(=O)CSc2nnnn2-c2ccc(C)cc2Cl)c(Cl)c1 [Entry 502],IC50,[1],< 50 nM
same,IC50,[2],> 100 nM
same,EC50,[3],< 50 nM
Cc1ccc(C)c(NC(=O)CSc2nnnn2-c2cccc3ccccc23)c1 [Entry 240],IC50,[1],> 100 nM
same,IC50,[2],> 100 nM
O=C(CSc1nnnn1-c1ccccc1)Nc1ccccc1[N+](=O)[O-] [Entry 108],IC50,[1],> 100 nM
same,IC50,[2],> 100 nM
COC(=O)c1ccc(NC(=O)CSc2ccccc2-c2ccc(C)cc2Cl)c(Cl)c1 [Entry 418],IC50,[1],< 50 nM
same,IC50,[2],> 100 nM
same,EC50,[3],50 to 100 nM
O=C(CSc1nnnn1-c1cccc2ccccc12)Nc1ccccc1 [Entry 201],IC50,[1],> 100 nM
same,IC50,[2],> 100 nM
Cc1ccc(-c2ccccc2SCC(=O)Nc2ccc(C(=O)O)cc2Cl)c(Cl)c1 [Entry 419],IC50,[1],< 50 nM
same,IC50,[2],> 100 nM
same,EC50,[3],50 to 100 nM
OC(COc1ccccc1Cl)CSc1nnnn1-c1cccc2ccccc12 (stereo not shown) [Entry 325],IC50,[1],> 100 nM
same,IC50,[2],> 100 nM
O=C(CSc1nnnn1-c1ccc(Cl)c(C(F)(F)F)c1)Nc1ccccc1[N+](=O)[O-] [Entry 137],IC50,[1],> 100 nM
same,IC50,[2],> 100 nM
O=C(CSc1nc2ccccc2n1-c1cccc2ccccc12)Nc1ccccc1[N+](=O)[O-] [Entry 411],IC50,[1],> 100 nM
same,IC50,[2],> 100 nM
